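Method: 48-hour compound exposure of cells in 96-well plates, five concentrations, linear interpolation of endpoints. At the GI50, growth is halved. At the TGI there is no net growth.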
How the values were obtained:
Experiment in all cases: inhibition of tumour cell growth, NCI panel, 48 h
[1] = tested on: A549 NSCLC
[2] = tested on: CAKI-1 renal
[3] = tested on: COLO 205 colon
[4] = tested on: HT29 colon
[5] = tested on: RPMI-8226 leukemia
[6] = tested on: SF-268 CNS
[7] = tested on: SK-MEL-2 melanoma
[8] = tested on: U251 CNS
[9] = tested on: UACC-62 melanoma
[10] = tested on: SR leukemia

SMILES	GI50 [1]	TGI [1]	GI50 [2]	TGI [2]	GI50 [3]	TGI [3]	GI50 [4]	TGI [4]	GI50 [5]	TGI [5]	GI50 [6]	TGI [6]	GI50 [7]	TGI [7]	GI50 [8]	TGI [8]	GI50 [9]	TGI [9]	GI50 [10]	TGI [10]
Cc1ccc(NC2=CC(=O)C(=O)c3ccccc32)c(C)c1	1.97 µM	4.34 µM	2 µM	7.95 µM	3.06 µM	11.6 µM	2.51 µM	7.08 µM	4.84 µM	53.7 µM	3.75 µM	16.2 µM	2.29 µM	6.4 µM	3.07 µM	11.9 µM	1.78 µM	3.72 µM	–	–
CC1(C)OC2OC(COC(=O)C(c3ccccc3)c3ccccc3)C3OC(C)(C)OC3C2O1 (configuration not stated)	–	> 100 µM	> 100 µM	> 100 µM	–	> 100 µM	–	> 100 µM	–	42.7 µM	–	> 100 µM	–	> 100 µM	–	–	–	> 100 µM	–	–
Cc1ccc(O)cc1Nc1ccnc2cc(-c3ccccn3)ccc12	3.8 µM	8.39 µM	1.05 µM	4.36 µM	3.92 µM	7.34 µM	3.9 µM	7.81 µM	4.25 µM	9.88 µM	1.71 µM	5.88 µM	3.86 µM	8.03 µM	3.29 µM	6.65 µM	3.45 µM	7.34 µM	–	–
c1ccc2c(c1)[O][Sn][O]2	11 µg/mL	> 150 µg/mL	30.2 µg/mL	> 150 µg/mL	> 150 µg/mL	> 150 µg/mL	95.4 µg/mL	> 150 µg/mL	7.54 µg/mL	> 150 µg/mL	25.1 µg/mL	> 150 µg/mL	92.6 µg/mL	> 150 µg/mL	> 150 µg/mL	> 150 µg/mL	35.5 µg/mL	> 150 µg/mL	–	–
Cc1cn2c(/C=C3/C(=O)Nc4ccc(C(=O)O)cc43)c(C)nc2s1	> 100 µM	> 100 µM	> 100 µM	> 100 µM	> 100 µM	> 100 µM	> 100 µM	> 100 µM	> 100 µM	> 100 µM	> 100 µM	> 100 µM	> 100 µM	> 100 µM	> 100 µM	> 100 µM	> 100 µM	> 100 µM	–	–
CCOC(=O)COc1cccc2occc(=O)c12	–	> 100 µM	–	> 100 µM	–	> 100 µM	–	> 100 µM	–	> 100 µM	–	> 100 µM	–	> 100 µM	–	> 100 µM	–	> 100 µM	–	–
O=C(CCC(=O)C1Cc2ccccc2C1=O)Nc1cccc(C(F)(F)F)c1 (configuration not stated)	–	> 100 µM	–	> 100 µM	–	> 100 µM	–	> 100 µM	–	–	–	> 100 µM	–	> 100 µM	–	> 100 µM	–	> 100 µM	–	–
NCC(Cc1ccccc1)P(=O)(O)O (configuration not stated)	–	> 100 µM	–	> 100 µM	–	> 100 µM	–	> 100 µM	–	–	–	> 100 µM	–	> 100 µM	–	> 100 µM	–	> 100 µM	–	–
COc1ncc2cc1NS(=O)(=O)c1cccc(c1)C(=O)NCC1=CC=C(S1)c1ncnc3c1SC2=C3C	0.158 µM	0.805 µM	0.0795 µM	10.3 µM	0.204 µM	0.555 µM	0.201 µM	1.74 µM	0.202 µM	0.588 µM	0.37 µM	11.8 µM	0.225 µM	1.15 µM	0.17 µM	2.03 µM	0.248 µM	1.24 µM	–	–
CCN(CC)C(=O)CCCCCn1c2ccccc2c2c3c(c4c5ccccc5[nH]c4c21)C(=O)N(O)C3=O	21.8 µM	98.4 µM	–	–	1.97 µM	4.23 µM	2.22 µM	4.44 µM	3.06 µM	11.3 µM	3.97 µM	> 100 µM	3.38 µM	12.1 µM	1.96 µM	3.78 µM	4.1 µM	20.1 µM	1.56 µM	13.6 µM
COc1ccc2c3c(c(C(=O)O)oc13)C(CCC(=O)O)CC2 (configuration not stated)	–	> 100 µM	–	> 100 µM	–	> 100 µM	–	> 100 µM	–	–	–	–	–	–	–	> 100 µM	–	> 100 µM	–	–
CCOC(=O)C1=CSC2=NC3=C(CCC/C3=C\c3cc(OC)c(OC)c(OC)c3)C(c3cc(OC)c(OC)c(OC)c3)N12 (configuration not stated)	–	–	6.77 µM	> 100 µM	3.05 µM	> 100 µM	1.34 µM	> 100 µM	0.333 µM	1.67 µM	–	–	> 100 µM	> 100 µM	–	–	2.71 µM	> 100 µM	–	–
C1CCN2CC3CONC3C2C1 (configuration not stated)	–	> 100 µM	–	> 100 µM	–	> 100 µM	–	> 100 µM	–	> 100 µM	–	> 100 µM	–	> 100 µM	–	> 100 µM	–	> 100 µM	–	–
CN(C)CCS(=O)(=O)Nc1cc(-c2ccc3ncnc(Nc4ccc(F)c(Cl)c4)c3c2)cnc1Cl	0.803 µM	3.26 µM	–	–	0.748 µM	2.22 µM	–	–	1.04 µM	4.52 µM	0.549 µM	> 100 µM	0.715 µM	2.74 µM	0.85 µM	2.91 µM	0.938 µM	3.4 µM	0.809 µM	–
C=C(C)[C@@H]1CC[C@]2(C(=O)n3ccnc3)CC[C@]3(C)[C@H](CC[C@@H]4[C@@]5(C)CCCNC(C)(C)[C@@H]5CC[C@]43C)[C@@H]12	1.94 µM	3.62 µM	–	–	1.52 µM	3.25 µM	0.785 µM	2.17 µM	–	–	2.77 µM	9.21 µM	–	–	1.7 µM	3.14 µM	1.6 µM	3.06 µM	–	–
NNC(=O)N/N=C1\CNC(=O)C(=O)C1c1nc2ccccc2s1 (configuration not stated)	–	> 100 µM	–	> 100 µM	–	> 100 µM	–	> 100 µM	–	> 100 µM	–	> 100 µM	–	> 100 µM	–	> 100 µM	–	> 100 µM	–	–
Nc1c(-c2nc3ccccc3s2)[n+]([O-])c2ccccc2[n+]1[O-]	–	> 100 µM	–	81.8 µM	–	> 100 µM	–	> 100 µM	–	89.5 µM	–	82.2 µM	–	74.9 µM	–	> 100 µM	–	> 100 µM	–	–
O=C(/C=C/c1cccc(Oc2ccc(Cl)cc2)c1)c1ccccc1	138 µM	298 µM	–	–	63.4 µM	283 µM	26.2 µM	61.6 µM	25.3 µM	61 µM	75.5 µM	209 µM	148 µM	336 µM	21.1 µM	42 µM	26.8 µM	77 µM	22.9 µM	78.7 µM
C=CC(C)(O)CCC1C(=C)C(O)CC2C(C)(C)CCCC12C (configuration not stated)	–	54.9 µM	–	68.2 µM	–	29.4 µM	–	33 µM	–	58.2 µM	–	38 µM	–	31.1 µM	–	28.8 µM	–	29.8 µM	–	–
O=C(Nc1cccc(-n2cc(-c3ccncc3)c(-c3ccc(O)c(Cl)c3)n2)c1)Nc1ccc(Cl)c(Cl)c1	1.54 µM	7.27 µM	–	–	2.5 µM	6.23 µM	3.42 µM	39 µM	1.49 µM	4.54 µM	2.65 µM	16.6 µM	–	–	1.25 µM	5.61 µM	1.99 µM	4.94 µM	0.43 µM	2.75 µM
COc1cc2c3c(n(CCCN4CCSCC4)c(=O)c2cc1OC)-c1cc2c(cc1C3=O)OCO2	> 100 µM	> 100 µM	21.1 µM	> 100 µM	> 100 µM	> 100 µM	> 100 µM	> 100 µM	–	–	28.2 µM	> 100 µM	16.8 µM	36.4 µM	> 100 µM	> 100 µM	37.5 µM	> 100 µM	–	–
NC(=O)C(=O)Cc1nc2ccccc2s1	–	> 100 µM	–	–	–	> 100 µM	–	> 100 µM	–	> 100 µM	–	> 100 µM	–	> 100 µM	–	> 100 µM	–	–	–	–
CC(=O)c1c(O)c2c([nH]c1=O)CCCC2	–	> 100 µM	–	> 100 µM	–	> 100 µM	–	> 100 µM	–	–	–	> 100 µM	–	–	–	60.9 µM	–	43.3 µM	–	–
CCN(CC)CCCNc1c2ccc(Cl)cc2nc2ccc(OC)cc12	0.0582 µM	5.83 µM	–	–	0.0398 µM	2.01 µM	0.033 µM	1.56 µM	0.042 µM	2.83 µM	0.0618 µM	3.53 µM	1.69 µM	3.31 µM	–	–	1.84 µM	3.55 µM	0.029 µM	3.67 µM
O=C1c2ccccc2-c2c1c1ccc([N+](=O)[O-])cc1c(=O)n2CCCCl	> 100 µM	> 100 µM	2.45 µM	> 100 µM	–	–	65 µM	> 100 µM	1.36 µM	33.3 µM	23.5 µM	> 100 µM	> 100 µM	> 100 µM	3.08 µM	> 100 µM	20.3 µM	> 100 µM	–	–
O=c1[nH]c(=O)n(C2CC(O)C(O)C(CO)O2)cc1F (configuration not stated)	–	> 100 µM	–	–	–	> 100 µM	–	> 100 µM	–	> 100 µM	–	> 100 µM	–	> 100 µM	–	> 100 µM	–	> 100 µM	–	–

From PubChem BioAssay (NCI)
